The values below come from patent US20060172992A1, “Therapeutic agent for overactive bladder resulting from cerebral infarction” (EISAI CO., LTD., priority 2004, published 2006).

The subject of series [1] is rat with overactive bladder caused by cerebrovascular disease. Particulars: cited from earlier work.
The test system of series [2] is human with overactive bladder caused by cerebrovascular disease. Particulars: cited from earlier work.
In a further series the test system is cerebral infarction rats. Kind of series: Bladder pressure measurement after intraventricular administration, cerebral infarction rats. It is filed as in vivo, rat. Here is the method:
After producing cerebral infarction rats, drug infusion tubes were placed in the lateral ventricles of the rats.
The process was conducted in the same manner as Example 5 except that metal tubes were inserted into lateral ventricles upon producing cerebral infarction rats. […] Feasibility of intraventricular administration was determined after injecting ink into the brain, sacrificing the rats and removing the brains to verify on their faces. […] As vehicle, saline was infused for […]. Experiments of five examples for each concentration were conducted.

Series [3] concerns overactive bladder model rats (cerebral infarction by left middle cerebral artery embolization). The series is described as follows: Bladder pressure measurement after intravenous administration, cerebral infarction rats (CI group).
[4] abbreviates: 5×10^−4 mg/kg and 5×10^−5 mg/kg.

Entries after “also recorded” stand apart in the source; their conditions may differ.

On to `COc1ccc(C(=O)N2CCCC2=O)cc1` [Aniracetam], for which the micturition reflex result in series [1] and in series [2] was “suppression of micturition reflex is observed” in each case.

For `COc1cc2c(cc1OC)C(=O)C(CC1CCN(Cc3ccccc3)CC1)C2.Cl` (stereo not drawn) [donepezil hydrochloride, 1-benzyl-4-[(5,6-dimethoxy-1-indanone)-2-yl]methylpiperidine hydrochloride], in the series with cerebral infarction rats (cerebral infarction group, 5×10^−5 mg/ml), the “bladder capacity, dose comparison” value is “most increased”. In the series on cerebral infarction rats (cerebral infarction rats, 5×10^−5 mg/ml), the “increase in bladder capacity” value is on record as 95.8%. Moreover, the “bladder capacity, difference from vehicle administration group” value is “increased with a significant margin” with cerebral infarction rats (cerebral infarction rats, 5 μl of 5×10^−5 mg/ml and 5×10^−6 mg/ml, hydrochloride); “significant difference from the vehicle administration group” in series [3] (CI group, 5×10^−4 mg/kg and 5×10^−5 mg/kg, hydrochloride). The bladder capacity entry is on record as “notably increased” in the series on cerebral infarction rats (cerebral infarction rats, 5 μl of 5×10^−7 to 5×10^−4 mg/ml, hydrochloride) and “increased the bladder capacities; also recorded: gradually increased” in series [3] (CI group, 5×10^−7 to 5×10^−1 mg/kg every 30 minutes, hydrochloride, 1 mg/kg). For the same molecule, the micturition contraction pressure entry is on record as “No change; also recorded: no significant difference” in the series with cerebral infarction rats (respective doses, versus vehicle, hydrochloride); “no change” in series [3] (setting [4]); “significantly increased” in series [3] (CI group, 5×10^−1 mg/kg). Besides, in series [3] (setting [4]), the retained urine entry is “little retained urine”. The “increase in bladder capacity (percentage of change from control)” value in series [3] (CI group, 5×10^−5 mg/kg) is 52.8%. Also, the “percentage of change in bladder capacity” value in series [3] (CI group, 5×10^−4 to 5×10^−5 mg/kg (bladder capacity most increased)) was found to be 52.8%. For the same molecule, the “micturition contraction pressure, versus vehicle administration group” value in series [3] (CI group, 5×10^−7 to 5×10^−2 mg/kg) was “no significant difference”.
